Results taken from patent US8952024B2, “Herbicidal pyrimidone derivatives” (E I du Pont de Nemours and Company, priority 2009, dated 2015).

Key:
Type in all cases: in vivo
[1] = test system: barnyardgrass (Echinochloa crus-galli); experiment: Test B flooded paddy test; settings: for Plant response rating, Barnyardgrass: Flood (flooded paddy test), 13 to 15 days
Method in brief: (§1)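 Ratings are visual, 0–100 (100 = complete control), taken versus untreated controls 13 to 15 days after treatment in the greenhouse. Compound went straight into paddy water held 3 cm above soil, applied to 2-leaf-stage plants of four species.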

[2] = test system: ducksalad (Heteranthera limosa); experiment: Test B flooded paddy test; settings: for Plant response rating, Ducksalad: Flood (flooded paddy test), 13 to 15 days
Method in brief: as §1

rice (Oryza sativa) = experiment: Test B flooded paddy test; settings: for Plant response rating, Rice: Flood (flooded paddy test), 13 to 15 days
Method in brief: as §1

[3] = test system: umbrella sedge (Cyperus difformis); experiment: Test B flooded paddy test; settings: for Plant response rating, Sedge, Umbrella: Flood (flooded paddy test), 13 to 15 days
Method in brief: as §1

corn (Zea mays) = experiment: Test B pre-/postemergence plant response
From the text: (§2) Seeds of plant species selected from blackgrass (Alopecurus myosuroides), downy bromegrass (Bromus tectorum), green foxtail (Setaria viridis), Italian ryegrass (Lolium multiflorum), wheat (Triticum aestivum), wild oat (Avena fatua), deadnettle (henbit deadnettle, Lamium amplexicaule), galium (catchweed bedstraw, Galium aparine), bermudagrass (Cynodon dactylon), Surinam grass (Brachiaria decumbens), cocklebur (Xanthium strumarium), corn (Zea mays), large crabgrass (Digitaria sanguinalis), woolly cupgrass (Eriochloa villosa), giant foxtail (Setaria faberii), goosegrass (Eleusine indica), johnsongrass (Sorghum halepense), kochia (Kochia scoparia), lambsquarters (Chenopodium album), morningglory (Ipomoea coccinea), nightshade (eastern black nightshade, Solanum ptycanthum), yellow nutsedge (Cyperus esculentus), pigweed (Amaranthus retroflexus), ragweed (common ragweed, Ambrosia elatior), Russian thistle (Salsola kali), soybean (Glycine max), sunflower (common oilseed sunflower, Helianthus annuus) and velvetleaf (Abutilon theophrasti) were planted into a blend of loam soil and sand and treated preemergence with test compounds formulated in a non-phytotoxic solvent mixture which included a surfactant.
(§3) At the same time, plants selected from these crop and weed species and also winter barley (Hordeum vulgare), canarygrass (Phalaris minor), chickweed (Stellaria media) and windgrass (Apera spica-venti) were planted in pots containing Redi-Earth® planting medium (Scotts Company, 14111 Scottslawn Road, Marysville, Ohio 43041) comprising spaghnum peat moss, vermiculite, wetting agent and starter nutrients and treated with postemergence applications of some of the test chemicals formulated in the same manner. Plants ranged in height from 2 to 18 cm (1- to 4-leaf stage) for postemergence treatments.
(§4) Treated plants and controls were maintained in a greenhouse for 13 to 15 days, after which time all treated plants were visually evaluated and compared to controls. Plant response ratings, summarized in Table B, are based on a scale of 0 to 100 where 0 is no effect and 100 is complete control. A dash (-) response means no test result.

wild oat (Avena fatua) = experiment: Test B pre-/postemergence plant response
From the text: as §2, §3, §4

[4] = test system: ragweed (common ragweed, Ambrosia elatior); experiment: Test B pre-/postemergence plant response
From the text: as §2, §3, §4

[5] = test system: johnsongrass (Sorghum halepense); experiment: Test B pre-/postemergence plant response
From the text: as §2, §3, §4

[6] = test system: bermudagrass (Cynodon dactylon); experiment: Test B pre-/postemergence plant response
From the text: as §2, §3, §4

[7] = test system: cocklebur (Xanthium strumarium); experiment: Test B pre-/postemergence plant response
From the text: as §2, §3, §4

[8] = test system: lambsquarters (Chenopodium album); experiment: Test B pre-/postemergence plant response
From the text: as §2, §3, §4

[9] = test system: green foxtail (Setaria viridis); experiment: Test B pre-/postemergence plant response
From the text: as §2, §3, §4

kochia (Kochia scoparia) = experiment: Test B pre-/postemergence plant response
From the text: as §2, §3, §4

[10] = test system: pigweed (Amaranthus retroflexus); experiment: Test B pre-/postemergence plant response
From the text: as §2, §3, §4

soybean (Glycine max) = experiment: Test B pre-/postemergence plant response
From the text: as §2, §3, §4

[11] = test system: giant foxtail (Setaria faberii); experiment: Test B pre-/postemergence plant response
From the text: as §2, §3, §4

[12] = 250 g ai/ha, flooded paddy test, visual rating on 0 to 100 scale (0 no effect, 100 complete control) after 13 to 15 days
[13] = 62 g ai/ha, scale of 0 to 100 where 0 is no effect and 100 is complete control
[14] = 125 g ai/ha, scale 0 to 100, 0 is no effect, 100 is complete control
[15] = Flood, 31 g ai/ha, scale 0 to 100 (0 no effect, 100 complete control)
[16] = 31 g ai/ha, postemergence, scale 0 to 100, 0 is no effect, 100 is complete control
[17] = 62 g ai/ha, postemergence, 0 is no effect, 100 is complete control, 13 to 15 days
[18] = Postemergence, 125 g ai/ha, visual rating after 13 to 15 days, scale 0 (no effect) to 100 (complete control)
[19] = Postemergence, 250 g ai/ha, scale 0 to 100 (0 no effect, 100 complete control)

Compound: O=C1CCCC(O)=C1C(=O)c1cnc(C2CC2)n(-c2ccccc2)c1=O [Compound 87]
- Plant response rating, Flood, Barnyardgrass [1, 12]: 60
- Plant response rating, Barnyardgrass [1, 13]: 45
- Plant response rating, Barnyardgrass [1, 14]: 55
- Barnyardgrass plant response rating [1, 15]: 20
- Plant response rating, Flood, Ducksalad [2, 12]: 20
- Plant response rating, Ducksalad [2, 13]: 30
- Plant response rating, Ducksalad [2, 14]: 20
- Ducksalad plant response rating [2, 15]: 20
- Plant response rating, Flood, Rice (rice (Oryza sativa); [12]): 70
- Plant response rating, Rice (rice (Oryza sativa); [13]): 20
- Plant response rating, Rice (rice (Oryza sativa); [14]): 60
- Rice plant response rating (rice (Oryza sativa); [15]): 0
- Plant response rating, Flood, Sedge, Umbrella [3, 12]: 70
- Plant response rating, Sedge, Umbrella [3, 13]: 20
- Plant response rating, Sedge, Umbrella [3, 14]: 50
- Sedge, Umbrella plant response rating [3, 15]: 0
- Plant response rating, Corn (corn (Zea mays); [16]): 20
- Corn plant response rating (0 to 100 scale) (corn (Zea mays); [17]): 55
- Plant response rating, Corn (corn (Zea mays); [18]): 75
- Plant response rating, Corn (corn (Zea mays); [19]): 75
- Plant response rating, Oat, Wild (wild oat (Avena fatua); [16]): 50
- Oat, Wild plant response rating (0 to 100 scale) (wild oat (Avena fatua); [17]): 60
- Plant response rating, Oat, Wild (wild oat (Avena fatua); [19]): 90
- Plant response rating, Ragweed [4, 16]: 85
- Ragweed plant response rating (0 to 100 scale) [4, 17]: 95
- Plant response rating, Ragweed [4, 19]: 98
- Plant response rating, Johnsongrass [5, 16]: 5
- Johnsongrass plant response rating (0 to 100 scale) [5, 17]: 25
- Plant response rating, Johnsongrass [5, 19]: 45
- Plant response rating, Bermudagrass [6, 16]: 90
- Bermudagrass plant response rating (0 to 100 scale) [6, 17]: 90
- Plant response rating, Bermudagrass [6, 18]: 98
- Plant response rating, Bermudagrass [6, 19]: 100
- Plant response rating, Cocklebur [7, 16]: 98
- Cocklebur plant response rating (0 to 100 scale) [7, 17]: 100
- Plant response rating, Cocklebur [7, 18]: 100
- Plant response rating, Cocklebur [7, 19]: 100
- Plant response rating, Lambsquarters [8, 16]: 98
- Lambsquarters plant response rating (0 to 100 scale) [8, 17]: 98
- Plant response rating, Lambsquarters [8, 19]: 100
- Plant response rating, Foxtail, Green [9, 16]: 75
- Foxtail, Green plant response rating (0 to 100 scale) [9, 17]: 80
- Plant response rating, Foxtail, Green [9, 19]: 95
- Plant response rating, Kochia (kochia (Kochia scoparia); [16]): 100
- Kochia plant response rating (0 to 100 scale) (kochia (Kochia scoparia); [17]): 100
- Plant response rating, Kochia (kochia (Kochia scoparia); [19]): 100
- Plant response rating, Pigweed [10, 16]: 98
- Pigweed plant response rating (0 to 100 scale) [10, 17]: 98
- Plant response rating, Pigweed [10, 19]: 100
- Plant response rating, Soybean (soybean (Glycine max); [16]): 98
- Soybean plant response rating (0 to 100 scale) (soybean (Glycine max); [17]): 98
- Plant response rating, Soybean (soybean (Glycine max); [19]): 100
- Plant response rating, Foxtail, Giant [11, 16]: 75
- Foxtail, Giant plant response rating (0 to 100 scale) [11, 17]: 80
- Plant response rating, Foxtail, Giant [11, 19]: 95
